Experimental data reported in paper PMC9820303, “^αN-Acetyl β-Endorphin Is an Endogenous Ligand of σ1Rs That Regulates Mu-Opioid Receptor Signaling by Exchanging G Proteins for σ2Rs in σ1R Oligomers” (International Journal of Molecular Sciences, 2022).

Assays:
[1] = test system: NMDAR overactivation seizures in CD1 mice; experiment: NMDA-induced seizures (1 nmol NMDA icv); format: in vivo, mouse; conditions: for effect on behavioral signs evoked by NMDA: 8 mice
Description: Figure 1 ^αN-acetyl β-End 1–31 reduced ischemic brain damage and diminished seizures induced by NMDAR overactivation. Implication of σ1Rs. (A) ^αN-acetyl β-End 1–31 administration diminished ischemic brain damage in wild-type but not σ1R^−/− mice. Upper panel: representative 2,3,5-triphenyltetrazolium chloride (TTC)-stained brain section images obtained from saline- and drug-treated mice (3 nmol, 1 h after surgery) 48 h after pMCAO. White indicates infarction; red staining indicates normal tissue. Lower panel: the bar graphs quantitatively compare the infarct volume based on TTC staining from wild-type mice treated with saline, β-End 1–31 and the σ1R agonist PRE084 (white bars). The reducing effect of ^αN-acetyl β-End 1–31 was counteracted by β-End 1–31 and PRE084 (gray bars). In σ1R^−/− mice, the positive effect of ^αN-acetyl β-End 1–31 was not observed. […] Effects of PPCC, β-End 1–31 and ^αN-acetyl β-End 1–31 on seizures induced by NMDA in wild-type and σ1R^−/− mice. The mice received icv 1 nmol of the NMDAR agonist NMDA 30 min after the other drugs (3 nmol) and were then immediately evaluated. […] ANOVA followed by the Holm–Sidak multiple comparisons test, p < 0.05, 1-β > 0.80.
Seizures were induced by injection of NMDA (1 nmol/mouse icv, in a volume of 4 μL sterile saline) as described by others. […] The seizure activity consisted of a mild myoclonic phase (immobility, mouth and facial movements, tail extension, circling), rearing (violent movements of the whole body, rearing), wild running (episodes of running with explosive jumps), clonic convulsions (characterized by rigidity of the whole body, including limb flexion/extension), followed by continuous/repetitive seizure activity (tonic seizures) and, in approximately 15–20% of the animals, death. The episode typically began a few seconds after injection and evolved to its maximal intensity in less than 1 min.

MORs = conditions: tritiated naloxone and morphine, mouse brain synaptosomes; cited from earlier work
Excerpt: (§1) ^αN-acetyl β-End 1–31 prevented or alleviated a series of negative symptoms in animals, such as the brain injury caused by pMCAO, the convulsive syndrome promoted by icv-injection of NMDA, and mechanical allodynia caused by unilateral sciatic nerve CCI.

[2] = test system: [^125I]-Tyr^27 β-End 1–31 binding site (probably the σ1R site); conditions: 5 pM [125I]-Tyr27 β-End 1–31; cited from earlier work
Excerpt: as §1

CCI CD1 mice = experiment: Chronic sciatic nerve constriction injury (CCI), mechanical allodynia, von Frey test; format: in vivo, mouse
Description: Implication of σ1Rs. […] Upper panel: the withdrawal thresholds of the contralateral and ipsilateral paws were measured before (indicated as 0) and up to 14 days after surgery. […] Middle panel: 0.3 and 3 nmol of ^αN-acetyl β-End 1–31 were administered icv 7 days after surgery, and the nociceptive threshold was evaluated at the indicated postinjection intervals (in minutes). For every time interval studied in min or days, * indicates a significant difference from the group that received saline instead of ^αN-acetyl β-End 1–31; ϕ significant difference from the effect of 3 nmol ^αN-acetyl β-End 1–31. […] All data are presented as the mean ± SD of six mice. ANOVA followed by the Holm–Sidak multiple comparisons test, p < 0.05, 1-β > 0.80. […] Upper panel: wild-type mice were injected icv with saline, ^αN-acetyl β-End 1–31 (1 nmol/mouse) or the combination of the σ1R agonist PPCC (3 nmol/mouse) plus ^αN-acetyl β-End 1–31 20 min before morphine and β-End 1–31. Analgesia was evaluated by the warm water (52 °C) tail-flick test at the interval postinjection corresponding to their peak effect, 30 min. Lower panel: σ1R^−/− mice received 1 nmol ^αN-acetyl β-End 1–31, 20 min before morphine and β-End 1–31 and analgesia was evaluated as described above. Eight mice were used per strain and treatment. * Significant difference with respect to the group treated with morphine or β-End 1–31 alone. ANOVA followed by the Holm–Sidak multiple comparisons test, p < 0.05, 1-β > 0.80.
After the basal mechanical sensitivity of the mice was tested, neuropathic pain was induced by chronic sciatic nerve constriction injury (CCI) surgery under isoflurane/oxygen anesthesia using the procedure described by Bennett and Xie with modifications. Briefly, a 0.5 cm incision was made in the right midthigh, the biceps femoris muscle was separated, and the sciatic nerve was exposed proximal to its trifurcation. Two ligatures (5/0 braided silk suture; Lorca Marin, Murcia, Spain, 70,014) were tied around this nerve approximately 1 mm apart until a short flick of the ipsilateral hind limb was observed. The incision was then closed in layers with a 4–0 Ethicon silk suture. The same procedure was used for sham surgery, except that the sciatic nerve was exposed but not ligated. The tactile pain threshold of both the ipsilateral and contralateral hind paws was then assessed before and on different days post-surgery. The mice were individually placed in a transparent plastic cage with a wire-mesh bottom that allowed full access to the paws. After a habituation period of 20 min, a mechanical stimulus was delivered to the plantar surface from below the floor of the test chamber to measure allodynia using an automatic von Frey apparatus (Ugo Basile #37,450, Comerio, Italy). A steel rod (0.5 mm diameter) was pushed against the hind paw over a 10 s period as the force increased from 0 to 10 g. When the mouse withdrew its hind paw, the mechanical stimulus was automatically stopped, and the force at which withdrawal occurred was recorded. At each time point, three separate threshold measurements were obtained from each hind paw and then averaged.

[3] = test system: CD1 mice (wild-type and σ1R−/−); conditions: single icv dose; cited from earlier work
σ1R oligomers-σ2R = target: T1, σ1R oligomers-σ2R (Mus musculus, UniProt O55242); experiment: Ex vivo fishing assay: σ1R and σ2R of mouse cerebral cortex bound to agarose-σ1R oligomers; format: biochemical; conditions: wild-type mouse cerebral cortex SBM; n = 3
T1 construct: The coding region of the full-length murine σ1R (AF004927); GST (N); made in house; host or cells: E. coli BL21 (KRX) for the σ1R bait; σ2R and further σ1R come from solubilised mouse cerebral cortex synaptosomes
Description: (B) Θ-σ1R captured G proteins in CD1 wild-type and σ2R^−/− SBM. Ex vivo fishing assays were performed as described in Figure 4C. The data from σ2R^−/− solubilized cortical tissue were referred to the wild-type control (arbitrary value of 1). (C) The σ1R oligomers captured G proteins from σ2R^−/− mouse SBM. For each Gα subunit and the σ1R, the immunosignals in the absence of the acetylated peptide were the controls (C, value of 1). […] (A,B,D,E) Data are the mean ± SD, n = 3. Data were analyzed by pairwise Holm–Sidak multiple comparison tests following ANOVA: p < 0.05, 1-β > 0.80.
For fishing studies, solubilization of neural synaptosomes from cerebral cortices or PAG was carried out at 4 °C in RIPA buffer. The membranes were incubated at 4 °C for 16 h with agitation, and then centrifuged at 10,000× g for 5 min. The supernatant was cleared with 20 μL of Sepharose 4B (#17-0120-01, GE Healthcare) pre-equilibrated for 1 h at 4 °C, followed by centrifugation at 4300× g for 5 min. The σ1R was immobilized through covalent attachment to N-Hydroxysuccinimide (NHS)-activated Sepharose 4 fast flow (4FF, #17-0906-01; GE) according to the manufacturer’s instructions. […]

[4] = 3 nmol icv 30 min before 1 nmol NMDA icv, wild-type mice

T1 sequence (O55242 whole entry): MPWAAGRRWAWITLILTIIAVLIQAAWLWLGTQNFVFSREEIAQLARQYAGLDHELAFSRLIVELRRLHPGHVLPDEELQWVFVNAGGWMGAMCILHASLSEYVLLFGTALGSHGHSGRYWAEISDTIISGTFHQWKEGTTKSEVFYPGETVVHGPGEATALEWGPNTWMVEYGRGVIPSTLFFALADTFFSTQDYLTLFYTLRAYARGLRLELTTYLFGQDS

| Compound | effect on behavioral signs evoked by NMDA [1, 4] | effect on the anticonvulsant action of ^αN-acetyl β-End 1–31 ([1]; 3 nmol icv with ^αN-acetyl β-End 1–31, wild-type mice) | affinity to MORs (MORs) | fraction of [^125I]-Tyr^27 β-End 1–31 specific binding abolished [2] | effect on mechanical allodynia, 0.3 nmol (CCI CD1 mice; 0.3 nmol icv 7 days after CCI surgery, von Frey, 6 mice) | effect on mechanical allodynia, 3 nmol (CCI CD1 mice; 3 nmol icv 7 days after CCI surgery, von Frey, 6 mice) | duration of clear protection (CCI CD1 mice; higher dose (3 nmol icv), partial protection for an additional 24 h) [h] | time after icv administration at which the beneficial effect was observed (CCI CD1 mice; icv, 7 days after CCI surgery) [min] | duration of the effect of a single dose on analgesia [3] [h] | effect on clonic convulsions and tonic seizures [1, 4] | anticonvulsant effects in σ1R−/− mice ([1]; σ1R−/− mice, 3 nmol icv) | effect on σ1R oligomerization and σ2R presence at the agarose-σ1R bait (σ1R oligomers-σ2R) | effect on the antiallodynic action of ^αN-acetyl β-End 1–31 (CCI CD1 mice; 3 nmol icv together with 3 nmol ^αN-acetyl β-End 1–31) |
| --- | --- | --- | --- | --- | --- | --- | --- | --- | --- | --- | --- | --- | --- |
| COC(=O)[C@]1(c2ccc(C)cc2)C[C@@H]1CN1CCC(O)(c2ccccc2)CC1 [PPCC, (1R,2S/1S,2R)-2-[4-hydroxy-4-phenylpiperidin-1-yl)methyl]-1-(4-methylphenyl) cyclopropanecarboxylate, reference compound] | did not significantly alter the behavioral effects | prevented ^αN-acetyl β-End 1–31 from alleviating these signs |  |  |  |  |  |  |  |  |  |  |  |
| ^αN-acetyl β-End 1–31: β-End 1–31 acetylated at N terminal Y1, α position | partially protected the mice from hypermobility and convulsive rearing |  | μM range | 20–30% | significantly reduced mechanical allodynia | practically restored the von Frey response to the levels observed presurgery | 24 | 10 to 15 | 24 | only a tendency to diminish clonic convulsions and tonic seizures | absent | reduces the extent of σ1R oligomerization, and increases the association of σ2Rs with the bait |  |
| Cl.O=C(OCCN1CCOCC1)C1(c2ccccc2)CCCCC1 [PRE084, 2-(4-morpholinethyl)-1-phenylcyclohexanecarboxylate hydrochloride, reference compound] |  |  |  |  |  |  |  |  |  |  |  |  | prevented the β-End 1–31 ^αN-acetyl derivative from diminishing the response of CCI mice in the von Frey test |
